Experimental data from US20240374561A1, “METHOD FOR PREVENTING NITRATION OF TYROSINE RESIDUES IN HEPATOCYTE GROWTH FACTOR USING TRISULFIDE COMPOUND” (KYUSHU UNIVERSITY, NATIONAL UNIVERSITY CORPORATION, priority 2021, published 2024).

Assays:
[1] = target: T1, recombinant mouse HGF (Mus musculus, UniProt Q08048); assay: Inhibition of nitration of recombinant HGF protein by peroxynitrite (ONOO-), Western blot with anti-nitrotyrosine antibody; assay type: biochemical; settings: for inhibit nitration of tyrosine residues in HGF: summary statement
T1 construct: purchased R&D Systems 2207-HG-025/CF
T1 sequence (Q08048 33-728): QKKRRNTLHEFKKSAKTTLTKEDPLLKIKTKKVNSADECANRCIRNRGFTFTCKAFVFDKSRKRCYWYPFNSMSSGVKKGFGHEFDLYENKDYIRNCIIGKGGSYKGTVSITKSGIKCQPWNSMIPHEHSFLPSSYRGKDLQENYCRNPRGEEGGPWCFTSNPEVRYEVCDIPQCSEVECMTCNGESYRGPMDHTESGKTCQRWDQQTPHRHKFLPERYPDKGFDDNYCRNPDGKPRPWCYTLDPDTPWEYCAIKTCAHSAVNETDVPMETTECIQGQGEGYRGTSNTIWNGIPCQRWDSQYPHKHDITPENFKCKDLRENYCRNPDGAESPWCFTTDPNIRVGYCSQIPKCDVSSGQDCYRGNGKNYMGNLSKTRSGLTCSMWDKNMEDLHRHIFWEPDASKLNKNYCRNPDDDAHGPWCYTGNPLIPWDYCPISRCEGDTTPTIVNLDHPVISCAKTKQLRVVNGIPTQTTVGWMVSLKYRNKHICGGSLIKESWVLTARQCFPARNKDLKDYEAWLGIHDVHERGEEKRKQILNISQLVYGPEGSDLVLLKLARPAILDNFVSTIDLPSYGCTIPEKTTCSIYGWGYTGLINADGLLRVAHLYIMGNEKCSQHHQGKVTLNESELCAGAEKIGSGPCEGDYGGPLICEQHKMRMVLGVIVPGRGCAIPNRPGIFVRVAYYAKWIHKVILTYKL
Method: GSSSG dihydrate produced by the method described in Patent Literature 1 was added to and mixed with a purified preparation of recombinant mouse HGF (2207-HG-025/CF, manufactured by R&D Systems, carrier free) dissolved in PBS such that the molar ratio of HGF:GSSSG was 1:10, 1:50, or 1:400 to prepare samples. A sample was also prepared in which GSSSG dihydrate was not added and the molar ratio of HGF:GSSSG was 1:0. Peroxynitrite (ONOO^−) was immediately added to each sample such that the molar ratio of HGF:ONOO^− was 1:500. The samples were held at pH 7.2 to 7.4 and 25 to 37° C. for 30 minutes (nitrating treatment) to give nitrated samples.
The obtained nitrated samples were subjected to Western blotting in accordance with a conventional method. The nitrated samples were treated with a solution containing SDS and β-mercaptoethanol to give samples for reduced SDS-PAGE. A 10% polyacrylamide gel was used for electrophoresis. The material of the transfer membrane used was nitrocellulose. HRP-labeled anti-nitrotyrosine monoclonal antibody (catalog number: sc-32757 HRP, manufactured by Santa Cruz Biotechnology) and HRP-labeled anti-HGF monoclonal antibody (catalog number: sc-374422 HRP, manufactured by Santa Cruz Biotechnology) were used. The immune response was recorded on an imaging device using ECL reagents. Nitrated bovine serum albumin (BSAnitro) was used as a positive control sample. PL (Protein Ladder) and MW-STD (Molecular Weight-Standard) in FIG. 1 are molecular weight markers. Further, material A in FIG. 1 means GSSSG.
Nitration treatment and Western blotting were performed in the same manner as in Example 1 except that lipoic acid trisulfide was used instead of GSSSG and the molar ratio of HGF:ONOO was set to 1:4000. In FIG. 1, material B means lipoic acid trisulfide.

[2] = Solubility in water at 20° C.; assay type: physicochemical; settings: free lipoic acid trisulfide

N[C@@H](CCC(=O)N[C@@H](CSSSC[C@H](NC(=O)CC[C@H](N)C(=O)O)C(=O)NCC(=O)O)C(=O)NCC(=O)O)C(=O)O [GSSSG, glutathione trisulfide]
reaction intensity with the anti-nitrotyrosine antibody (nitration of tyrosine residues in HGF) ([1]; molar ratio HGF:GSSSG 1:0, 1:10, 1:50, 1:400, HGF:ONOO- 1:500, pH 7.2 to 7.4, 25 to 37° C., 30 minutes, FIG. 1): decreased with an increase in the molar ratio of GSSSG added
inhibit nitration of tyrosine residues in HGF [1]: in a concentration-dependent manner

O=C(O)CCCC[C@@H]1CCSSS1 [Lipoic acid trisulfide R body, (R)-lipoic acid trisulfide]
Lipoic acid trisulfide Solubility [2]: 300 µg/mL

O=C(O)CCCCC1CCSSS1 (centres unmarked) [lipoic acid trisulfide]
reaction intensity with the anti-nitrotyrosine antibody (nitration of tyrosine residues in HGF) ([1]; increasing molar ratio of lipoic acid trisulfide, HGF:ONOO 1:4000, otherwise as Example 1, FIG. 2): decreased with an increase in the molar ratio of lipoic acid trisulfide added
inhibit nitration of tyrosine residues in HGF [1]: in a concentration-dependent manner
